Data published in publication PMC5986654, “Combined HAT/EZH2 modulation leads to cancer-selective cell death” (Oncotarget, 2018).

How the values were obtained:
SIRT1 = SIRT1 (Homo sapiens, UniProt Q96EB6); assay: SIRT1 in vitro assay; type: biochemical
Procedure: The HDAC1 and SIRT1 assays were performed as described previously.

KAT5 = KAT5 (Homo sapiens, UniProt Q92993); assay: HAT in vitro assay, 10-dose IC50, KAT5; type: biochemical; conditions: substrate Histone H2A, 3 μM Acetyl-CoA; read-out: Compound IC50 KAT5
Procedure: (§1) For HAT in vitro assay, MC2884 activity was also tested in vitro and IC50 was calculated as indicated in the scheme. […] Reactions were carried out at 3 μM Acetyl-CoA. Empty cells indicate no inhibition or compound activity that could not be fit to an IC50 curve.

CBP = CBP (Homo sapiens, UniProt Q92793); assay: HAT in vitro assay, 10-dose IC50, CBP; type: biochemical; conditions: substrate Histone H3, 3 μM Acetyl-CoA; read-out: Compound IC50 CBP
Procedure: as §1

[1] = Body weight of leukemia-xenografted mice; type: in vivo; conditions: 1 mg/kg i.p. three times weekly, 16 days post-xenograft; control mice 94%
Procedure: (§2) Xenograft studies using NB4 and U937-AML cells were performed in NOG SCID mice under specific pathogen–free conditions. Cells (0.2 × 10^6 in 100 µL) were injected intravenously (retro orbital vein). Injected mice were randomly assigned to receive intra-peritoneal MC2884 (1 mg/kg) or vehicle for two weeks (8 doses) (10 mice per group). All animal procedures were performed in accordance with protocols approved by the local Committee for Animal Experimentation and with the permission of the Italian Health Ministry (n° 626/2015). At 16 days after injection, mice were sacrificed and the femurs and spleens were collected. Bone marrow (BM) and spleen cells were analyzed by FACS. To avoid non-specific stain, cells were mixed with mouse IgG and incubated with indicated antibodies for 30’. The mixture was depleted of erythrocytes and fixed (BD Pharmingen). […] Tumor growth was monitored by weekly bioluminescence imaging (BLI) acquisitions using an IVIS 3D Imaging System (Caliper Alameda, USA). To quantify bioluminescence, the integrated fluxes of photons (photons per s) within each area of interest were determined using the Living Images Software Package 3.2 (Caliper, Alameda, USA). […] Efficacy of drug treatment was assessed as inhibition of BLI emission comparing those MC2884 treated mice group and vehicle groups.

CYP2D6 = target: T1, CYP2D6 (Homo sapiens, UniProt P10635); assay: Cytochrome P450 inhibition, CYP2D6; type: in vitro ADME; conditions: human liver microsomes, probe dextromethorphan
T1 construct: liver microsomes (0.5 mg/mL) and NADPH (1 mM) in; from tissue; host or cells: human liver microsomes
Procedure: This provided a dose of 2 mg free base material/kg when Cytochrome p450 inhibition (5 isoform iC50 administered iv in a 5 mL/kg dosing volume. determination) mouse terminal ip pK study ADME-Tox Cytochrome P450 inhibition of Compound MC2884 was given ip at a dose of 2 mg/kg MC2884 using human liver microsomes as an estimation to a group of 24 normally fed male CD1 mice in a 10 mL/ of in vitro metabolism. kg injection volume. Terminal blood samples (> 230 μL) MC2884 (0.1 μM–25 μM) was incubated with were taken under CO2 from groups of 3 mice at each of 8 human liver microsomes and NADPH in the presence time-points post dose (0.083, 0.25, 0.5, 1, 2, 4, 8 and 24 h) of a cytochrome P450 isoform-specific probe substrate. and placed into heparinized tubes. […]
All samples were stored at −20° C measuring the formation of a fluorescent metabolite. […]
Cyp2C19 inhibition (0.1 mg/mL) and NADPH (1 mM) in the presence of the probe substrate midazolam (2.5 μM) for 5 min at Six test compound samples at concentrations 37° C. […] For the CYP1A incubations, the reactions microsomes (0.5 mg/mL) and NADPH (1 mM) in the were terminated by methanol, and the formation of the presence of the probe substrate mephenytoin (25 μM) metabolite, resorufin, was monitored by fluorescence for 60 min at 37° C. […]

NB4 cells = assay: NB4 leukemia xenograft, human CD45+ cells in bone marrow; type: in vivo, mice; conditions: 1 mg/kg i.p., day 16
Procedure: as §2

Sequence of SIRT1 (Q96EB6 whole entry): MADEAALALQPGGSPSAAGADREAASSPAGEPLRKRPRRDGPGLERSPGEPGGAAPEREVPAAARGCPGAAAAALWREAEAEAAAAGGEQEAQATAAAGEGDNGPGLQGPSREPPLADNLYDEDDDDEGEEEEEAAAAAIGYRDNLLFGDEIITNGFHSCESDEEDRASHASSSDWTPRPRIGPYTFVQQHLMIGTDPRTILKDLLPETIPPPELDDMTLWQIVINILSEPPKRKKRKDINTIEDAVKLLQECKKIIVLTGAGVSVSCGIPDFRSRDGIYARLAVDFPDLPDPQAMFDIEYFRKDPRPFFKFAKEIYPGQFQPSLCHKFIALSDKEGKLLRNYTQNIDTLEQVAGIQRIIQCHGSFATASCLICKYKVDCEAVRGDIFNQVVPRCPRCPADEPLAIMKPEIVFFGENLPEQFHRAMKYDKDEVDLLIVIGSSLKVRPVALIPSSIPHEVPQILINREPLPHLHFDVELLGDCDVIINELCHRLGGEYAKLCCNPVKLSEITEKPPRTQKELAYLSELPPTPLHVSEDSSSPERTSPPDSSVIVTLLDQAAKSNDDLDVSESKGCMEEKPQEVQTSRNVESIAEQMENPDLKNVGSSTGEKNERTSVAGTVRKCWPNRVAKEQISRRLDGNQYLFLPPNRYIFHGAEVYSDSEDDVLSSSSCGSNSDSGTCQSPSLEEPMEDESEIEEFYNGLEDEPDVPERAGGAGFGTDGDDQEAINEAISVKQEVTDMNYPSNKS
Sequence of CBP (Q92793 whole entry): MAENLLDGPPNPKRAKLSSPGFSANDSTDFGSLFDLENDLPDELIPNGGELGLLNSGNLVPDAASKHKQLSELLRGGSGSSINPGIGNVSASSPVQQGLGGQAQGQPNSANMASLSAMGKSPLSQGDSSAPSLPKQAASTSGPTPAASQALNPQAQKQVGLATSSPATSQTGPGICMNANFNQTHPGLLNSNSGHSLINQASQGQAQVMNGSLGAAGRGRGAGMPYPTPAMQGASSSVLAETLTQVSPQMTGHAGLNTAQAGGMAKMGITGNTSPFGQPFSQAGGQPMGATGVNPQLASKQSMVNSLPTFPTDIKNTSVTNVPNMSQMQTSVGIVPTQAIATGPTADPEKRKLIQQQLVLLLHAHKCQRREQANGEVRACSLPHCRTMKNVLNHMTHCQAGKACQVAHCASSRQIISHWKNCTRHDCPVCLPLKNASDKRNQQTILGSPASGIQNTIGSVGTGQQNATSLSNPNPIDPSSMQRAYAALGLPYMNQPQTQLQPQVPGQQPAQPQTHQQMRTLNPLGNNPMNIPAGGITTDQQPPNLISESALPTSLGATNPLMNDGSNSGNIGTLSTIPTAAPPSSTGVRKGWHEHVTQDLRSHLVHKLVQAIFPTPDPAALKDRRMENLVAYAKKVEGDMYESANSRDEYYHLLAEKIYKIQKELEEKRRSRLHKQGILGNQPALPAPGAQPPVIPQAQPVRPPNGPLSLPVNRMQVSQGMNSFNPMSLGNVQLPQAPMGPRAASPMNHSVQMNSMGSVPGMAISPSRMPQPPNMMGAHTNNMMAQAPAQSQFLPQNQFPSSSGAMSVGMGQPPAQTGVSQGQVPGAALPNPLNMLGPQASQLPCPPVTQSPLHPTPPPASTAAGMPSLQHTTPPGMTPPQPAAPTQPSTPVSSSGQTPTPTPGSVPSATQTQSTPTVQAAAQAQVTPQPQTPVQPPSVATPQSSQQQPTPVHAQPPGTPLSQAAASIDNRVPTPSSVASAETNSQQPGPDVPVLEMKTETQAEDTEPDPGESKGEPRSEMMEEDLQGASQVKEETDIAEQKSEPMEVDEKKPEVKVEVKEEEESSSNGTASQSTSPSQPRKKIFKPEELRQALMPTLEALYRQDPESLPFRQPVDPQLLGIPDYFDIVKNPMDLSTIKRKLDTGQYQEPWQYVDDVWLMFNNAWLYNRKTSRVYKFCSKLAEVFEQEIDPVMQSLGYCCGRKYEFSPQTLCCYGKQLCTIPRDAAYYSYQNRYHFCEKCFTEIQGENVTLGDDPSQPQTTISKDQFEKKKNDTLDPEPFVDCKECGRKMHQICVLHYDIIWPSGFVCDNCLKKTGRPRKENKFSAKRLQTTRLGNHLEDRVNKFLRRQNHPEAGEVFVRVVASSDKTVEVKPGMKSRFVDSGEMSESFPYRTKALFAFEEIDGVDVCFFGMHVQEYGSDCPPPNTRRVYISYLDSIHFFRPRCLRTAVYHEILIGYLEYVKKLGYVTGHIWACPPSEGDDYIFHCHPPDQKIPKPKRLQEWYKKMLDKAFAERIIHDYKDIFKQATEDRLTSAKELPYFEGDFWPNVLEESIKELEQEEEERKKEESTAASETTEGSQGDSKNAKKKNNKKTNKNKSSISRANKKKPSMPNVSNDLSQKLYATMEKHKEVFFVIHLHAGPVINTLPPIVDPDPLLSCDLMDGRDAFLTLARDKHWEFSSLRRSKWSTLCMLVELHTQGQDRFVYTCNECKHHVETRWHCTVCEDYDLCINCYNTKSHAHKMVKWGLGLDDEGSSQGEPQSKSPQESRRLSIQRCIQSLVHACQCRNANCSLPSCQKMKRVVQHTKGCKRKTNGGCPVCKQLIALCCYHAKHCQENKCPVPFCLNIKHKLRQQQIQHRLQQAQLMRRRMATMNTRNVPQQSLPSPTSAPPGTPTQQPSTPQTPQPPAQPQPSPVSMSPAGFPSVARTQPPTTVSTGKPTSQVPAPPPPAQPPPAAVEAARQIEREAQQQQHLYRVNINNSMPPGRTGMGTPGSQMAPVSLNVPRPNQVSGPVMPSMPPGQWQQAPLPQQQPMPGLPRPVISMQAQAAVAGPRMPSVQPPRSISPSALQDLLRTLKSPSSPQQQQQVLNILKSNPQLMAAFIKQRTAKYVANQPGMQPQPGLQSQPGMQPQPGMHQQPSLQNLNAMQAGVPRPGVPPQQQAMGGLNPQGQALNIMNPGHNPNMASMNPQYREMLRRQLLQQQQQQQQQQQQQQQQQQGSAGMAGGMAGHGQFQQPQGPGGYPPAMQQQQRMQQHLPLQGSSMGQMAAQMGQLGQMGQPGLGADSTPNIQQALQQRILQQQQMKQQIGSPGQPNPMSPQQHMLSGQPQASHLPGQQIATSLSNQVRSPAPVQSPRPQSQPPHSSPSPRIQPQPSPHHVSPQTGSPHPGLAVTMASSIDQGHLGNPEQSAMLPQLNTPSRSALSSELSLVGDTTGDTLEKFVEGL
Sequence of KAT5 (Q92993 whole entry): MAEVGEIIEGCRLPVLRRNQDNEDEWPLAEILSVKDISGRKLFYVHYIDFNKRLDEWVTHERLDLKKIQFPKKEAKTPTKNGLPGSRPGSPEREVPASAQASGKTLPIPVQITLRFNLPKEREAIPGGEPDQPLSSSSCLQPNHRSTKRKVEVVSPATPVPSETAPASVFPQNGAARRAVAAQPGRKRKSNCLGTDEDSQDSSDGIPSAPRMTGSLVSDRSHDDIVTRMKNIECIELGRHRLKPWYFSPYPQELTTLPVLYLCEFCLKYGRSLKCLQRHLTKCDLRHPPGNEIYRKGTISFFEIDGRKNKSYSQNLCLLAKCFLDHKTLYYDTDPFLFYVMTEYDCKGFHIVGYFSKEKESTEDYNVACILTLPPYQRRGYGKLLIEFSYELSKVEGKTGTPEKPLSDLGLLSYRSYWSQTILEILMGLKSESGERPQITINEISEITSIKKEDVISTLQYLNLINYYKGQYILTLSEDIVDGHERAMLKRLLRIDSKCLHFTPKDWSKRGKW
T1 sequence (P10635 whole entry): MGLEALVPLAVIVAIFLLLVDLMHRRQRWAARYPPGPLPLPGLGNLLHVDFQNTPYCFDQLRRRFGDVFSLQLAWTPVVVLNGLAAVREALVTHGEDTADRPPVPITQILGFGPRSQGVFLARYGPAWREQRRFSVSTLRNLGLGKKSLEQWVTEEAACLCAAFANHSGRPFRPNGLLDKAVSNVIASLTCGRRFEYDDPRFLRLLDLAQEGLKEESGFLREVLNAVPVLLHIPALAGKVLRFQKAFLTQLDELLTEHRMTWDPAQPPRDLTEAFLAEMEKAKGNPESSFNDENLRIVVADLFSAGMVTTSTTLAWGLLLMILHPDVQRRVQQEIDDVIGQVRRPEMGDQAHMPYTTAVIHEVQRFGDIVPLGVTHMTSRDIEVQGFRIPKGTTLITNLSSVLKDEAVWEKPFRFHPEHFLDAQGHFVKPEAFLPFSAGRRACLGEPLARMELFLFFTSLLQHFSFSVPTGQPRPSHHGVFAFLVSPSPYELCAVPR

## O=C1/C(=C/c2cccc(Br)c2)CN(Cc2ccccc2)C/C1=C\c1cccc(Br)c1 [MC2884]
SIRT1
  SirT modulating action: no activity
KAT5
  IC50: 0.835 µM
CBP
  IC50: 3.27 µM
[1]
  normalized weight, % of initial weight: 90%
CYP2D6
  IC50: > 25 µM
NB4 cells
  human CD45+ cells in the bone marrow reduced to: 17%
